This is an account of results in PMC4249827, “A Novel CMKLR1 Small Molecule Antagonist Suppresses CNS Autoimmune Inflammatory Disease” (PLoS ONE, 2014).

Like-named read-outs stand apart in the source and are kept apart here.

Data set [1] concerns C57BL/6 mice. The data set can be described thus: Preliminary in vivo toxicity, daily s.c. dosing for 16 days. Details: species or system mouse. As to conditions: s.c. daily for 16 days, doses up to at least 10 mg/kg per day. The text has this: Given the lack of adverse reactions in vivo, we next sought to test α-NETA for in vivo efficacy in the EAE model of MS.
The mice were then euthanized and vital organs weighed. Each symbol represents an individual mouse, and the bars indicate mean ± SEM, n = 3 mice per group. […] Control mice received either captisol vehicle or no treatment. […] For days 1–15, n = 52 mice per group; for days 16–27, n = 24–25 mice per group. * p<0.05 by Mann-Whitney U test.

The conditions of data set [2]: mouse.
The target of data set [3] is Tyrosyl-DNA phosphodiesterase 1 + camptothecin. On the set-up: method as in PubChem, 2014a. The settings on record: Cell-based (process); ref PubChem, 2014a; cited from earlier work.
In data set [4] the test system is Thrombopoietin. On the set-up: method as in PubChem, 2014a. The settings on record: Cell-based; ref PubChem, 2014a; cited from earlier work.
In data set [5] the test system is IL-6/STAT signaling. On the set-up: method as in PubChem, 2014a. The settings on record: Cell-based; ref PubChem, 2014a; cited from earlier work.
The target of data set [6] is Choline acetyltransferase. As to conditions: Purified enzyme; ref Sastry et al., 1988a; cited from earlier work.
Data set [7] concerns p53 mutants. Details: method as in PubChem, 2014a. As to conditions: Cell-based (process); ref PubChem, 2014a; cited from earlier work.
Data set [8] addresses Bacillus subtilis Sfp phosphopantetheinyl transferase. On the set-up: method as in PubChem, 2014a. The settings on record: Purified enzyme; ref PubChem, 2014a; cited from earlier work.
For data set [9], the target named is T1, huCMKLR1 (Homo sapiens, UniProt Q99788).
T1 sequence (Q99788 1-373): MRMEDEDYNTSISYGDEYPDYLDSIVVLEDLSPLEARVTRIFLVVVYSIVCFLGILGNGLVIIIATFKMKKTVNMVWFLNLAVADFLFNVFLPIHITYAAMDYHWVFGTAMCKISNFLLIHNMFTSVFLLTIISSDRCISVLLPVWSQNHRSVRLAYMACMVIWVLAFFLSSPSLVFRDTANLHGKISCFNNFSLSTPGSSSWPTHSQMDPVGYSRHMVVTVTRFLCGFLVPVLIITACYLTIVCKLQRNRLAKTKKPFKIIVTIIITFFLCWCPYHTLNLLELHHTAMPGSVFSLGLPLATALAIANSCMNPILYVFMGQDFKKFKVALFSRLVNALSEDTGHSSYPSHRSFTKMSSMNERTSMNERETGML
The experiment in a line: β-arrestin2 (β-ARR2) enzymatic complementation assay, CMKLR1/CHO cells. Type of data set: cell-based. On the set-up: host or cells: CHO. From the text:
The engagement of a chemoattractant receptor by its cognate ligand stimulates the recruitment of β-arrestin to the carboxyl-terminus of the receptor, an event that results in receptor internalization and termination of G protein-mediated signaling. […] To test this, we used an enzymatic complementation assay (the β-ARR2 assay), whereby the complementary fragments from the β-gal active site are fused to the carboxyl-terminus of CMKLR1 and β-arrestin2. The special association of these molecules leads to enzyme activity, which is detected by a chemiluminescent substrate.

In data set [10] the target is CCR9 (Homo sapiens, UniProt P51686). The data set can be described thus: Transwell chemotaxis of CCR9+ MOLT-4 cells to CCL25.
Sequence of CCR9 (P51686 whole entry): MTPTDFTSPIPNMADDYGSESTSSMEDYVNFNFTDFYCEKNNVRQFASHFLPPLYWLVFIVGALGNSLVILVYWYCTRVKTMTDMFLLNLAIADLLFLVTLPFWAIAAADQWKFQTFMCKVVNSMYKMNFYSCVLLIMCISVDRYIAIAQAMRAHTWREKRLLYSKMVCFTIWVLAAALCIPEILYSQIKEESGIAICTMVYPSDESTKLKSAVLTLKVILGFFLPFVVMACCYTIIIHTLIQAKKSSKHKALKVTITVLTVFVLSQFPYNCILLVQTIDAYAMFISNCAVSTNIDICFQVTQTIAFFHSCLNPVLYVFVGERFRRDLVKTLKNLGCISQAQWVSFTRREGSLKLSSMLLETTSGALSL
Data set [11] concerns the target GPR1 (Homo sapiens, UniProt P46091). The experiment in a line: β-arrestin2 (β-ARR2) assay, GPR1/CHO cells, chemerin-stimulated.
Data set [12] addresses T1, huCMKLR1. The data set can be described thus: Transwell chemotaxis of huCMKLR1/L1.2 transfectants to chemerin.
In data set [13] the test system is C57BL/6 mice. The experiment in a line: Recall proliferation and cytokine (ELISA) responses of LN and spleen cells from treated MOG35-55/CFA-immunized mice. The settings on record: in vivo treatment over a 10-day period; 72 h restimulation.

Sequence of GPR1 (P46091 whole entry, species assumed): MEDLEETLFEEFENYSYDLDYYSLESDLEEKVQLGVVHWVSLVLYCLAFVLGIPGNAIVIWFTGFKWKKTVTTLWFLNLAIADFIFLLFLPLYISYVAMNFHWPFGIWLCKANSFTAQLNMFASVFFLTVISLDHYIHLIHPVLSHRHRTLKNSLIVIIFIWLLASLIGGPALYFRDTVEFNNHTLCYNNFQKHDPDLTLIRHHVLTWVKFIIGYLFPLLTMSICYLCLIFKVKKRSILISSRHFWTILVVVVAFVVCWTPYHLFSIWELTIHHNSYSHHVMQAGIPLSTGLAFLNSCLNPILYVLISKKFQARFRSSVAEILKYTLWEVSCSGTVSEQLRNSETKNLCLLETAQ

For orientation: IC50 means the point on the concentration scale where inhibition reaches its midpoint. Take `C[N+](C)(C)CCC(=O)c1cccc2ccccc12.[I-]` [α-NETA, 2-(α-naphthoyl)ethyltrimethylammonium iodide]: in data set [1], the “in vivo tolerability (survival, weight gain, appearance, behavior, organ wet weight)” value is “well tolerated”. The “detection of parent compound after in vivo dosing” value in data set [2] (iv, 0.5 mg/kg) was “unable to detect any of the parent compound”; in data set [2] (sc, 10 mg/kg), “unable to detect any of the parent compound”. Further, the 50% inhibitory concentration (IC50) in data set [3] was 0.58 µM; in [4], 2.5 µM; in [5], 6.3 µM; in data set [6] it was 9 µM; in data set [7], 13 µM; in data set [8], 18 µM. Further, the concentration for half-maximal inhibition (IC50) in data set [9] was 0.375 ± 0.042 µM; in data set [9] (IC50 (µM), β-arrestin, huCMKLR1, mean±SEM, n = 3-14 independent experiments), 0.38 µM; in data set [10], at least 10 µM; in data set [11], 3.4 µM; in data set [12], 6.5 ± 0.7 µM. In addition, the “inhibition of migration of CCR9+ MOLT4 cells to CCL25” value in [10] (1, 3, and 10 µM) was “did not inhibit”. Further, the “fold less potent against GPR1 compared to activity against CMKLR1” value in data set [11] (β-arrestin2 assay) came to 10 fold. In addition, the “MOG35-55 recall proliferation and IFNγ and IL-17 production of LN and spleen cells” value in data set [13] is reported as “comparable to vehicle-treated mice”.
